Laboratory results from ChEMBL document CHEMBL1201862, “PubChem BioAssay data set” (2004).
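Step 1: Grow cells in 96-well plates. Step 2: Expose to compound for 48 hours at 5 concentrations. Step 3: Interpolate endpoints linearly; if unreached, use highest concentration. GI50 = concentration required for 50% inhibition of growth.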 The source made the active and inactive calls. No stated cut-off is given here; in the data, active = GI50 up to about 1.1 µM and inactive = higher.

Key:
Assay in all cases: NCI tumour cell line growth inhibition, 48 h
[1] = test system: OVCAR-4
[2] = test system: SK-MEL-28
[3] = test system: RPMI-8226
[4] = test system: A549
[5] = test system: 786-0
[6] = test system: HOP-92
[7] = test system: HL-60
[8] = test system: NCI-H460
[9] = test system: SF-295
[10] = test system: MOLT-4
[11] = test system: CAKI-1
[12] = test system: OVCAR-3
[13] = test system: HCT-15
[14] = test system: NCI-H522
[15] = test system: EKVX
[16] = test system: SK-MEL-2
[17] = test system: SR

| SMILES | GI50 [1] | GI50 [2] | GI50 [3] | GI50 [4] | GI50 [5] | GI50 [6] | GI50 [7] | GI50 [8] | GI50 [9] | GI50 [10] | GI50 [11] | GI50 [12] | GI50 [13] [µM] | GI50 [14] | GI50 [15] | GI50 [16] | GI50 [17] |
| --- | --- | --- | --- | --- | --- | --- | --- | --- | --- | --- | --- | --- | --- | --- | --- | --- | --- |
| CCCCCCCCCCCCCCCCCC(=O)NCCCNCCCNC(=O)CCCCCCCCCCCCCCCCC | > 100 µM (inactive) | > 100 µM (inactive) | > 100 µM (inactive) | > 100 µM (inactive) | > 100 µM (inactive) | > 100 µM (inactive) | > 100 µM (inactive) | > 100 µM (inactive) | > 100 µM (inactive) | > 100 µM (inactive) | > 100 µM (inactive) | 37.3 µM (inactive) | > 100 |  |  |  |  |
| C=CCCCN1CCCC(C)C1=S (centres undefined) | > 100 µM (inactive) | > 100 µM (inactive) | > 100 µM (inactive) | > 100 µM (inactive) | > 100 µM (inactive) | > 100 µM (inactive) | > 100 µM (inactive) | > 100 µM (inactive) | > 100 µM (inactive) | > 100 µM (inactive) |  | > 100 µM (inactive) | > 100 | > 100 µM (inactive) | > 100 µM (inactive) | > 100 µM (inactive) | > 100 µM (inactive) |
| O=[N+]([O-])c1ccc2c(c1)OCCOCCOc1ccc([N+](=O)[O-])cc1OCCOCCO2 | > 100 µM (inactive) | > 100 µM (inactive) | > 100 µM (inactive) | > 100 µM (inactive) | > 100 µM (inactive) |  | > 100 µM (inactive) | > 100 µM (inactive) | > 100 µM (inactive) | > 100 µM (inactive) | > 100 µM (inactive) | > 100 µM (inactive) | > 100 | > 100 µM (inactive) | > 100 µM (inactive) | > 100 µM (inactive) | > 100 µM (inactive) |
| COC(=O)c1ccccc1NC(=O)C(=O)NNC(=O)c1ccncc1 | > 100 µM (inactive) | > 100 µM (inactive) |  | > 100 µM (inactive) | > 100 µM (inactive) | > 100 µM (inactive) | > 100 µM (inactive) | > 100 µM (inactive) | > 100 µM (inactive) | > 100 µM (inactive) | > 100 µM (inactive) | > 100 µM (inactive) | > 100 | > 100 µM (inactive) | > 100 µM (inactive) |  | > 100 µM (inactive) |
| Cc1c(C(Cc2ccccc2N(C)C(=O)/C=C\C(=O)O)c2c[nH]c3ccccc23)c2ccccc2n1C (centres undefined) | 22.5 µM (inactive) |  |  | 16.6 µM (inactive) | 16.4 µM (inactive) |  | 4.66 µM (inactive) | 15.3 µM (inactive) | 14.5 µM (inactive) | 22.9 µM (inactive) | 19.3 µM (inactive) | 12.3 µM (inactive) | 14.3 | 15.1 µM (inactive) | 16.3 µM (inactive) | > 10 µM (inactive) | 16.9 µM (inactive) |
| CC(C)(C)c1cc(CCC(=O)Nc2ccc(Cl)cc2)nc(S)n1 | > 100 µM (inactive) | > 100 µM (inactive) | > 100 µM (inactive) | > 100 µM (inactive) | > 100 µM (inactive) |  | > 100 µM (inactive) | > 100 µM (inactive) | > 100 µM (inactive) | > 100 µM (inactive) | > 100 µM (inactive) | > 100 µM (inactive) | > 100 | > 100 µM (inactive) | > 100 µM (inactive) | > 100 µM (inactive) |  |
| COc1ccc(/C=C2/C[N+](C)(C)C/C(=C/c3ccc(OC)cc3)C2=O)cc1 | 36 µM (inactive) | 12.9 µM (inactive) | 5.7 µM (inactive) | > 76.4 µM (inactive) | 34.7 µM (inactive) | 52.1 µM (inactive) | 14.7 µM (inactive) | 38.2 µM (inactive) | > 77.1 µM (inactive) | 16.7 µM (inactive) | > 100 µM (inactive) | 30 µM (inactive) | > 100 | 17.9 µM (inactive) | > 100 µM (inactive) | 25.6 µM (inactive) |  |
| NC(Cc1ccccc1)C(=O)OCN1C(=O)C2C3C=CC(C2C1=O)C1C2C(=O)N(COC(=O)C(N)Cc4ccccc4)C(=O)C2C31 (centres undefined) | 23.3 µM (inactive) | 18.6 µM (inactive) | 18.7 µM (inactive) | 23.2 µM (inactive) | 20.7 µM (inactive) | 41.8 µM (inactive) | 32.2 µM (inactive) | 16.3 µM (inactive) | 41.7 µM (inactive) |  |  | 28.4 µM (inactive) | 17.6 |  |  |  |  |
| CCOC(=O)NC(=O)c1cn(CC(=O)NCC(=O)NCC(=O)N2CCN(CCn3c(C)nc(C(N)=O)c3N)CC2)c(=O)[nH]c1=O |  | > 100 µM (inactive) |  | > 100 µM (inactive) | > 100 µM (inactive) | > 100 µM (inactive) | > 100 µM (inactive) | > 100 µM (inactive) | > 100 µM (inactive) | > 100 µM (inactive) | > 100 µM (inactive) |  | > 100 |  |  | > 100 µM (inactive) | > 100 µM (inactive) |
| Cc1cc2c(cc1C)[n+]([O-])c(C(=O)/C=C/c1ccc(Cl)cc1)c(C)[n+]2[O-] | 33.7 µM (inactive) | 23.2 µM (inactive) | 23.4 µM (inactive) | 28.2 µM (inactive) | 18.9 µM (inactive) | 28.6 µM (inactive) | 24 µM (inactive) | 25.9 µM (inactive) | 22 µM (inactive) | 23.8 µM (inactive) | 32.3 µM (inactive) | 33 µM (inactive) | 33 | 19.4 µM (inactive) | 55 µM (inactive) | 29.5 µM (inactive) |  |
| CN(C)CCCNC(=O)N/N=C/c1cccc([N+](=O)[O-])c1 | > 100 µM (inactive) | > 100 µM (inactive) |  | > 100 µM (inactive) | > 100 µM (inactive) |  |  | > 100 µM (inactive) | > 100 µM (inactive) | > 100 µM (inactive) |  | > 100 µM (inactive) | > 100 | > 100 µM (inactive) |  | > 100 µM (inactive) |  |
| NC(=O)N1N=C2c3ccccc3SC[C@H]2[C@@H]1c1ccccc1 | 26.9 µM (inactive) | 21.8 µM (inactive) | 33.4 µM (inactive) | 37.3 µM (inactive) | 29 µM (inactive) |  | 21.3 µM (inactive) | 19.1 µM (inactive) | 25.1 µM (inactive) | 23.7 µM (inactive) |  | 16.9 µM (inactive) | 23.9 | > 10 µM (inactive) | 35 µM (inactive) |  | 30 µM (inactive) |
| [N-]=[N+]=NC1CC(n2cc(COCC(F)(F)F)c(=O)[nH]c2=O)OC1CO (centres undefined) | > 100 µM (inactive) | > 100 µM (inactive) | > 100 µM (inactive) | > 100 µM (inactive) | > 100 µM (inactive) | > 100 µM (inactive) | > 100 µM (inactive) | > 100 µM (inactive) | > 100 µM (inactive) | > 100 µM (inactive) | > 100 µM (inactive) | > 100 µM (inactive) |  | > 100 µM (inactive) | > 100 µM (inactive) | > 100 µM (inactive) |  |
| O=c1[nH]c(-c2ccccc2)nc2cc([N+](=O)[O-])c(/C(Cl)=C/c3ccccc3)cc12 | 18.3 µM (inactive) | 26.2 µM (inactive) | 16.1 µM (inactive) | 23.2 µM (inactive) | 35 µM (inactive) | 11.8 µM (inactive) |  |  | 20.7 µM (inactive) | 50.8 µM (inactive) | 15.1 µM (inactive) | 30 µM (inactive) | 7.82 | 17.3 µM (inactive) | 46.5 µM (inactive) | 21.9 µM (inactive) | 31.1 µM (inactive) |
| [N-]=[N+]=NC(c1cn(C2CC(O)C(CO)O2)c(=O)[nH]c1=O)C(Cl)Br (centres undefined) |  | > 100 µM (inactive) | > 100 µM (inactive) | > 100 µM (inactive) | > 100 µM (inactive) | > 100 µM (inactive) | > 100 µM (inactive) | > 100 µM (inactive) | > 100 µM (inactive) | > 100 µM (inactive) | > 100 µM (inactive) |  | > 100 | > 100 µM (inactive) | > 100 µM (inactive) | > 100 µM (inactive) | > 100 µM (inactive) |
| Cc1nc(Nc2ccc([N+](=O)[O-])cc2)sc1C(=O)/C=C/c1ccc(N(C)C)cc1 |  | > 100 µM (inactive) | 54.1 µM (inactive) | 40.7 µM (inactive) | > 100 µM (inactive) | > 100 µM (inactive) | 76.7 µM (inactive) | 65.2 µM (inactive) | 40.1 µM (inactive) | 35.9 µM (inactive) | > 100 µM (inactive) | > 100 µM (inactive) | 44.6 | 19.4 µM (inactive) | 52.5 µM (inactive) | 64.3 µM (inactive) |  |
| COc1cccc2c1C(=O)C1(O)CCCCC21 (centres undefined) | > 100 µM (inactive) | > 100 µM (inactive) | > 100 µM (inactive) | > 100 µM (inactive) | > 100 µM (inactive) |  | > 100 µM (inactive) | > 100 µM (inactive) | > 100 µM (inactive) | > 100 µM (inactive) | > 100 µM (inactive) | > 100 µM (inactive) | > 100 | > 100 µM (inactive) |  | > 100 µM (inactive) |  |
| CC(C)c1ccc2c(c1)CCC1C(C)(C)[C@@H](O)CC[C@]21C (some centres undefined) | 56.8 µM (inactive) | 44.5 µM (inactive) | 21.2 µM (inactive) | 30.6 µM (inactive) | 22.5 µM (inactive) | 23.5 µM (inactive) | 17.7 µM (inactive) | 17.9 µM (inactive) | 18.3 µM (inactive) | 22.1 µM (inactive) | 50.1 µM (inactive) | 34 µM (inactive) | 32.7 | 25 µM (inactive) |  |  | 16.5 µM (inactive) |
| COc1ccc2[nH]c3c(O)nncc3c2c1 | > 100 µM (inactive) | > 100 µM (inactive) | > 100 µM (inactive) | > 100 µM (inactive) | 90.8 µM (inactive) | 35.1 µM (inactive) | > 100 µM (inactive) | > 100 µM (inactive) | > 100 µM (inactive) | > 100 µM (inactive) |  | > 100 µM (inactive) | > 100 | > 100 µM (inactive) | 8.45 µM (inactive) | 71.3 µM (inactive) | > 100 µM (inactive) |
